Measured values: patent publication US6914045B2, “Glycopeptide antibiotics” (Wyeth Holdings Corporation, priority 2001, dated 2005)
Converted amounts (≈) assume the structure as drawn.

Tests used:
Streptococcus sp. = assay: in vitro antibacterial evaluation, MIC by broth dilution; assay type: cell-based; settings: broth dilution, 18 hours at 35° C.
In short: (§1)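 Inoculum 5×10^5 CFU/mL; concentrations 64 to 0.06 μg/mL; MIC defined as lowest inhibitory level. Conducted by broth dilution under NCCLS guidelines.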

Staphylococcus sp. = assay: as above; assay type: cell-based; settings: broth dilution, 18 hours at 35° C.
In short: as §1

Enterococcus sp. = assay: as above; assay type: cell-based; settings: broth dilution, 18 hours at 35° C.
In short: as §1

Escherichia coli = assay: as above; assay type: cell-based; settings: 18 hours at 35° C.
In short: as §1

[1] = test system: Enterococcus faecalis (GC 6189); assay: acute lethal infection in mice; assay type: in vivo; settings: female CD-1 mice, intraperitoneal challenge, intravenous 30 min. after infection, 7 day survival
In short: (§2)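 Survival at 7 days, pooled from three independent tests, yields ED50 values. Treatment is intravenous, 30 min after ip infection of female CD-1 mice, using an inoculum lethal to untreated controls within 24-48 hr.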

[2] = test system: Staphylococcus aureus-SMITH (GC 4543); assay: acute lethal infection in mice; assay type: in vivo; settings: acute lethal infection, female CD-1 mice, intraperitoneal challenge, intravenous 30 min. after infection, 7 day survival
In short: as §2

Cc1cccc(C2OCC3OC(OC4C(CO)OC(Oc5ccc(CC6NC(=O)C(C(C)c7ccccc7)NC(=O)CNC(=O)C(CO)NC(=O)C(C(O)C7CNC(=N)N7C7OC(CO)C(O)C(O)C7O)NC(=O)C(C(O)C7CNC(=N)N7)NC6=O)cc5)C(O)C4O)C(O)C(O)C3O2)c1 (stereo not drawn) [Example 135, Cyclo[glycyl-β-methylphenylalanyl-O-[4-O-[4,6-O-(3-methylbenzylidene)hexopyranosyl]-hexopyranosyl]tyrosyl-3-(2-iminoimidazolidin-4-yl)seryl-3-(3-hexopyranosyl-2-iminoimidazolidin-4-yl)serylseryl]]
MIC Streptococcus agalactiae (GC 4564) (Streptococcus sp.; Streptococcus agalactiae (GC 4564)): 0.25 µg/mL (≈ 0.179 µM)
MIC Streptococcus pneumoniae (ATCC 6301) (Streptococcus sp.; Streptococcus pneumoniae (ATCC 6301)): <0.06 µg/mL
MIC Streptococcus pneumoniae (GC 1894) (Streptococcus sp.; Streptococcus pneumoniae (GC 1894)): <0.06 µg/mL
MIC Streptococcus pneumoniae (GC 4565) (Streptococcus sp.; Streptococcus pneumoniae (GC 4565)): <0.06 µg/mL
MIC Streptococcus pyogenes (GC 4563) (Streptococcus sp.; Streptococcus pyogenes (GC 4563)): 0.25 µg/mL (≈ 0.179 µM)
MIC Streptococcus pneumoniae (ATCC 6301) (Streptococcus sp.; strain ATCC 6301): <0.06 µg/mL
MIC Streptococcus pneumoniae (GC 1894) (Streptococcus sp.; strain GC 1894): <0.06 µg/mL
MIC Streptococcus pyogenes (GC 4563) (Streptococcus sp.; strain GC 4563): 0.25 µg/mL (≈ 0.179 µM)
MIC Streptococcus agalactiae (GC 4564) (Streptococcus sp.; strain GC 4564): 0.25 µg/mL (≈ 0.179 µM)
MIC Streptococcus pneumoniae (GC 4565) (Streptococcus sp.; strain GC 4565): <0.06 µg/mL
MIC Staphylococcus aureus (ATCC 29213) (Staphylococcus sp.): 1 µg/mL (≈ 0.716 µM)
MIC Staphylococcus aureus (GC 1131) (Staphylococcus sp.): 1 µg/mL (≈ 0.716 µM)
MIC Staphylococcus aureus (GC 3051) (Staphylococcus sp.): 1 µg/mL (≈ 0.716 µM)
MIC Staphylococcus aureus (GC 3053) (Staphylococcus sp.): 1 µg/mL (≈ 0.716 µM)
MIC Staphylococcus aureus (GC 4541) (Staphylococcus sp.): 1 µg/mL (≈ 0.716 µM)
MIC Staphylococcus aureus (GC 4542) (Staphylococcus sp.): 1 µg/mL (≈ 0.716 µM)
MIC Staphylococcus aureus (GC 4544) (Staphylococcus sp.): 2 µg/mL (≈ 1.43 µM)
MIC Staphylococcus aureus (GC 4545) (Staphylococcus sp.): 1 µg/mL (≈ 0.716 µM)
MIC Staphylococcus aureus (GC 1131) (Staphylococcus sp.; inoculum 5×10^5 CFU/mL, strain GC 1131): 1 µg/mL (≈ 0.716 µM)
MIC Staphylococcus aureus (ATCC 29213) (Staphylococcus sp.; strain ATCC 29213): 1 µg/mL (≈ 0.716 µM)
MIC Staphylococcus aureus (GC 3051) (Staphylococcus sp.; strain GC 3051): 1 µg/mL (≈ 0.716 µM)
MIC Staphylococcus aureus (GC 3053) (Staphylococcus sp.; strain GC 3053): 1 µg/mL (≈ 0.716 µM)
MIC Staphylococcus aureus (GC 4541) (Staphylococcus sp.; strain GC 4541): 1 µg/mL (≈ 0.716 µM)
MIC Staphylococcus aureus (GC 4542) (Staphylococcus sp.; strain GC 4542): 1 µg/mL (≈ 0.716 µM)
MIC Staphylococcus aureus-SMITH (GC 4543) (Staphylococcus sp.; strain GC 4543): 1 µg/mL (≈ 0.716 µM)
MIC Staphylococcus aureus (GC 4544) (Staphylococcus sp.; strain GC 4544): 2 µg/mL (≈ 1.43 µM)
MIC Staphylococcus aureus (GC 4545) (Staphylococcus sp.; strain GC 4545): 1 µg/mL (≈ 0.716 µM)
MIC Staphylococcus haemolyticus (GC 4546) (Staphylococcus sp.; strain GC 4546): 0.5 µg/mL (≈ 0.358 µM)
MIC Coagulase Negative Staphylococcus (GC 4547) (Staphylococcus sp.; strain GC 4547): 1 µg/mL (≈ 0.716 µM)
MIC Coagulase Negative Staphylococcus (GC 4548) (Staphylococcus sp.; strain GC 4548): 0.5 µg/mL (≈ 0.358 µM)
MIC Coagulase Negative Staphylococcus (GC 4549) (Staphylococcus sp.; strain GC 4549): 0.5 µg/mL (≈ 0.358 µM)
MIC Coagulase Negative Staphylococcus (GC 4551) (Staphylococcus sp.; strain GC 4551): 1 µg/mL (≈ 0.716 µM)
MIC Coagulase Negative Staphylococcus (GC 6257) (Staphylococcus sp.; strain GC 6257): 0.5 µg/mL (≈ 0.358 µM)
MIC Staphylococcus aureus-SMITH (GC 4543) (Staphylococcus sp.; strain SMITH GC 4543): 1 µg/mL (≈ 0.716 µM)
MIC Enterococcus avium (GC 4558) (Enterococcus sp.; Enterococcus avium (GC 4558)): 2 µg/mL (≈ 1.43 µM)
MIC Enterococcus faecalis (ATCC 29212) (Enterococcus sp.; Enterococcus faecalis (ATCC 29212)): 2 µg/mL (≈ 1.43 µM)
MIC Enterococcus faecalis (GC 2242) (Enterococcus sp.; Enterococcus faecalis (GC 2242)): 2 µg/mL (≈ 1.43 µM)
MIC Enterococcus faecalis (GC 2691) (Enterococcus sp.; Enterococcus faecalis (GC 2691)): 2 µg/mL (≈ 1.43 µM)
MIC Enterococcus faecalis (GC 3059) (Enterococcus sp.; Enterococcus faecalis (GC 3059)): 2 µg/mL (≈ 1.43 µM)
MIC Enterococcus faecalis (GC 4552) (Enterococcus sp.; Enterococcus faecalis (GC 4552)): 2 µg/mL (≈ 1.43 µM)
MIC Enterococcus faecalis (GC 4553) (Enterococcus sp.; Enterococcus faecalis (GC 4553)): 2 µg/mL (≈ 1.43 µM)
MIC Enterococcus faecalis (GC 4554) (Enterococcus sp.; Enterococcus faecalis (GC 4554)): 2 µg/mL (≈ 1.43 µM)
MIC Enterococcus faecalis (GC 6189) (Enterococcus sp.; Enterococcus faecalis (GC 6189)): 2 µg/mL (≈ 1.43 µM)
MIC Enterococcus faecium (GC 2243) (Enterococcus sp.; Enterococcus faecium (GC 2243)): 2 µg/mL (≈ 1.43 µM)
MIC Enterococcus faecium (GC 4556) (Enterococcus sp.; Enterococcus faecium (GC 4556)): 2 µg/mL (≈ 1.43 µM)
MIC Enterococcus faecium (GC 4557) (Enterococcus sp.; Enterococcus faecium (GC 4557)): 2 µg/mL (≈ 1.43 µM)
MIC Enterococcus faecalis (ATCC 29212) (Enterococcus sp.; strain ATCC 29212): 2 µg/mL (≈ 1.43 µM)
MIC Enterococcus faecalis (GC 2242) (Enterococcus sp.; strain GC 2242): 2 µg/mL (≈ 1.43 µM)
MIC Enterococcus faecium (GC 2243) (Enterococcus sp.; strain GC 2243): 2 µg/mL (≈ 1.43 µM)
MIC Enterococcus faecalis (GC 2691) (Enterococcus sp.; strain GC 2691): 2 µg/mL (≈ 1.43 µM)
MIC Enterococcus faecalis (GC 3059) (Enterococcus sp.; strain GC 3059): 2 µg/mL (≈ 1.43 µM)
MIC Enterococcus faecalis (GC 4552) (Enterococcus sp.; strain GC 4552): 2 µg/mL (≈ 1.43 µM)
MIC Enterococcus faecalis (GC 4553) (Enterococcus sp.; strain GC 4553): 2 µg/mL (≈ 1.43 µM)
MIC Enterococcus faecalis (GC 4554) (Enterococcus sp.; strain GC 4554): 2 µg/mL (≈ 1.43 µM)
MIC Enterococcus faecium (GC 4556) (Enterococcus sp.; strain GC 4556): 2 µg/mL (≈ 1.43 µM)
MIC Enterococcus faecium (GC 4557) (Enterococcus sp.; strain GC 4557): 2 µg/mL (≈ 1.43 µM)
MIC Enterococcus avium (GC 4558) (Enterococcus sp.; strain GC 4558): 2 µg/mL (≈ 1.43 µM)
MIC Enterococcus faecalis (GC 6189) (Enterococcus sp.; strain GC 6189): 2 µg/mL (≈ 1.43 µM)
MIC Escherichia coli (ATCC 25922) (Escherichia coli; strain ATCC 25922): 32 µg/mL (≈ 22.9 µM)
MIC Escherichia coli (GC 4559) (Escherichia coli; strain GC 4559): 32 µg/mL (≈ 22.9 µM)
MIC Escherichia coli (GC 4560) (Escherichia coli; strain GC 4560): 0.5 µg/mL (≈ 0.358 µM)
median effective dose (ED50), Enterococcus faecalis (GC 6189) [1]: 0.26 mg/kg
median effective dose (ED50), Staphylococcus aureus-SMITH (GC 4543) [2]: 0.07 mg/kg
